Test results reported in patent US20120238532A1, “TREATMENT OF HUMAN OSTEOSARCOMA” (CEDARS-SINAI MEDICAL CENTER, priority 2009, published 2012).

Experiments:
[1] = system: SAOS-2 cells; test: Morphological changes (crystal violet staining), SAOS-2; assay type: cell-based, human
Experimental: FIG. 2. (A) Graphical representation of the effect of CuB on MG-63 and SAOS-2 cells. Cells were exposed to CuB at their ED50 (70 nM for MG-63 and 50 nM for SAOS-2 cells). Time-dependent antiproliferative activity of CuB on MG-63 and SAOS-2 cells measured by pulse-exposure experiments. Cells were exposed to CuB for 2, 9, or 20 hours, washed extensively, and cultured in the absence of CuB for an additional 24, 48, and 72 hours. Cell growth was measured by MTT assay. Measurements were repeated in triplicates. Data represent mean±SD. Asterisks (**) represent p<0.001 vs DMSO control by t-test. (B) Morphological changes of MG-63 and SAOS-2 cells after exposure to cucurbitacin B. Cells with normal morphology (top) were compared to rounded cells (middle) and multinucleated cells (bottom). […] Representative cells are shown. 400×; scale bar=50 μm. (C) Graphical representation of G2/M cell cycle arrest after 20 hours of exposure to cucurbitacin B. Cells were stained with propidium iodide (PI) and analyzed by FACS. (D) Graphical representation of apoptosis after 72 hours of exposure to cucurbitacin B. Cells were stained with PI and Annexin V-FITC, and analyzed by FACS.

[2] = target: mTOR (Homo sapiens, UniProt P42345); test: DARTS analysis, mTOR; assay type: binding; set-up: endogenous in cells; host or cells: MG-63 whole-cell lysate; settings: MG-63 whole-cell lysates; 10, 100, or 1000 nM, 30 min
Experimental: Direct interaction of CuB and mTOR was assessed by DARTS as described in the original article with some modifications (14). Briefly, confluent MG-63 cells were harvested and lysed with lysis buffer (1% Triton X-100, 150 mM NaCl. 100 mM Tris-HCl, pH 7.4, 1 mM EDTA, and 1 mM EGTA, pH 8.0) supplemented with protease inhibitor (Roche, San Francisco, Calif.), 0.2 mM PMSF (Roche), and 0.2 mM Na3VO4 (Sigma). Cell lysates were incubated with 0.1 volume of increasing concentrations (10-1000 nM) of either DMSO or CuB at room temperature for 30 min. Lysates were then proteolyzed with thermolysin (Sigma) at room temperature for 3 min. Reaction was stopped by adding 0.5 M EDTA solution and 2× Laemmli sample buffer (Bio-Rad, Hercules, Calif.) with 5% β-mercaptoethanol (Sigma). Western blotting was performed as described below.

[3] = Serum chemistry in mice; assay type: in vivo; settings: day 35
Experimental: (§1) Whole blood samples were obtained by submandibular bleeding and serum samples were harvested with serum separator tubes (BD Biosciences). Blood count and serum chemistry results were obtained by the Hemagen Analyst Benchtop Chemistry System (Hemagen Diagnostics, Inc. Columbia, Md.). Colony-forming cell (CFC) assays were performed as previously described (18).

[4] = Blood counts in mice; assay type: in vivo; settings: day 35
Experimental: as §1

[5] = system: MG-63 xenografts; test: Growth of MG-63 xenografts in athymic nude mice; assay type: in vivo
Experimental: All animal experiments strictly followed the guidelines of Cedars-Sinai Medical Center and the National Institute of Health (NIH). Female nu/nu athymic nude mice (5-6 weeks old; average weight 21 g; specific pathogen-free) from Harlan Laboratories (Indianapolis, Ind.) were maintained in pathogen-free condition with sterilized chow and water. 5×10^6 cells of MG-63 cells were mixed with 200 μl of Matrigel solution (BD Biosciences) per injection, and the mixture was injected subcutaneously on the upper flanks of nude mice. After 24 hours, tumor size was measured, and any outliers were ruled out by one-way analysis of variance (ANOVA) test. […] The conversion was made using dose translation formula by Reagan-Shaw et al., (15). […] Body weights were monitored every 2 days. Tumor size was measured every 2 days, and the tumor volume was calculated using the following formula: A (length)×B (width)×C (height)×0.5236 (16). The experiment was stopped at day 35, and all mice were sacrificed. The presence of metastatic spread was examined macroscopically at the time of autopsy followed by histological examination. At least two tumors from each group were snap-frozen in liquid nitrogen for Western blotting.

[6] = system: SAOS-2 cells; test: MTT assay, SAOS-2 (dose-response, pulse-exposure, combination); assay type: cell-based, human; settings: pulse-exposed at ED50 for 2, 9, and 20 hours
Experimental: 7 human OS cell lines (U2OS, G292, MG-63, HT-161, HOS, SAOS-2, and SJSA) were used in the study. Each cell line except HT-161 was obtained from the American Type Culture Collection (ATCC, Rockville, Md.). HT-161 was obtained from Dr. Emil Bogenmann (13). All cell lines were tested and authenticated prior to use according to cell line verification test recommendations by ATCC. OS cell lines were maintained in DMEM medium (Mediatech Inc., Herndon, Va.) supplemented with 10% fetal bovine serum (FBS; Atlanta Biological, Lawrenceville, Ga.) in a humidified incubator at 37° C. supplied with 5% CO2. Only the cells in exponential growth phase were used in the study.
Cell growth and survival were measured by 3-(4,5-dimethylthiazol-2-yl)-2,5-diphenyltetrazolium bromide (MTT) assay. […] After 48 hours of incubation, 10 μl of 5 mg/ml MTT solution (Sigma-Aldrich, St. Louis, Mo.) was added to each well and incubated further for 2 hours. […] For pulse-exposure experiments, MG-63 and SAOS-2 cells were seeded in 96-well plates and exposed to CuB at their ED50. After 2, 9, and 20 hours of exposure, cells were washed twice with PBS and incubated further in CuB-free media. Cell growth was checked by MTT assay at 24, 48, and 72 hours.
Calcusyn 2.0 (Biosoft, Ferguson, Mo.) was used for CI analysis.

CC(=O)OC(C)(C)/C=C/C(=O)[C@](C)(O)[C@H]1[C@H](O)C[C@@]2(C)[C@@H]3CC=C4[C@H](C[C@H](O)C(=O)C4(C)C)[C@]3(C)C(=O)C[C@]12C [CuB, cucurbitacin B]
morphological changes ([1]; 2 hour exposure): Rapid loss of pseudopodia and rounding
morphological changes ([1]; 9 hour-exposure): multinuclearity which was not reversed by CuB removal
protection of mTOR protein from thermolysin proteolysis (DARTS) [2]: dose-dependent protection of mTOR protein from thermolysin proteolysis
CK ([3]; HD-CuB 1.0 mg/kg): 156.0 ± 33.9 U/l
albumin ([3]; HD-CuB 1.0 mg/kg): 3.4 ± 0.1 g/dL
bilirubin ([3]; HD-CuB 1.0 mg/kg): 0.06 ± 0.00 mg/dL
cholesterol ([3]; HD-CuB 1.0 mg/kg): 172.0 ± 8.5 mg/dL
creatine ([3]; HD-CuB 1.0 mg/kg): 0.42 ± 0.25 mg/dL
globulin ([3]; HD-CuB 1.0 mg/kg): 1.6 ± 0.2 g/dL
total protein ([3]; HD-CuB 1.0 mg/kg): 5.0 ± 0.1 g/dL
uric acid ([3]; HD-CuB 1.0 mg/kg): 5.5 ± 0.6 mg/dL
CK ([3]; LD-CuB 0.5 mg/kg): 140.5 ± 70.0 U/l
albumin ([3]; LD-CuB 0.5 mg/kg): 3.1 ± 0.1 g/dL
bilirubin ([3]; LD-CuB 0.5 mg/kg): 0.09 ± 0.04 mg/dL
cholesterol ([3]; LD-CuB 0.5 mg/kg): 147.0 ± 5.7 mg/dL
creatine ([3]; LD-CuB 0.5 mg/kg): 0.29 ± 0.05 mg/dL
globulin ([3]; LD-CuB 0.5 mg/kg): 0.7 ± 0.9 g/dL
total protein ([3]; LD-CuB 0.5 mg/kg): 3.7 ± 1.0 g/dL
uric acid ([3]; LD-CuB 0.5 mg/kg): 3.7 ± 0.3 mg/dL
Basophils ([4]; HD-CuB 1.0 mg/kg): 0.05 ± 0.07 K/μl
Eosinophils ([4]; HD-CuB 1.0 mg/kg): 0.15 ± 0.07 K/μl
Hb ([4]; HD-CuB 1.0 mg/kg): 10.10 ± 0.42 g/dL
Lymphocytes ([4]; HD-CuB 1.0 mg/kg): 2.90 ± 0.71 K/μl
Monocytes ([4]; HD-CuB 1.0 mg/kg): 0.35 ± 0.07 K/μl
Neutrophills ([4]; HD-CuB 1.0 mg/kg): 2.10 ± 0.42 K/μl
Platelets ([4]; HD-CuB 1.0 mg/kg): 651 ± 52.33 K/μl
RBCs ([4]; HD-CuB 1.0 mg/kg): 7.78 ± 0.45 M/μl
WBCs ([4]; HD-CuB 1.0 mg/kg): 5.55 ± 1.34 K/μl
Basophils ([4]; LD-CuB 0.5 mg/kg): 0.00 ± 0.00 K/μl
Eosinophils ([4]; LD-CuB 0.5 mg/kg): 0.01 ± 0.01 K/μl
Hb ([4]; LD-CuB 0.5 mg/kg): 9.60 ± 0.85 g/dL
Lymphocytes ([4]; LD-CuB 0.5 mg/kg): 2.63 ± 0.24 K/μl
Monocytes ([4]; LD-CuB 0.5 mg/kg): 0.18 ± 0.03 K/μl
Neutrophills ([4]; LD-CuB 0.5 mg/kg): 1.42 ± 0.30 K/μl
Platelets ([4]; LD-CuB 0.5 mg/kg): 742 ± 115.97 K/μl
RBCs ([4]; LD-CuB 0.5 mg/kg): 7.21 ± 1.00 M/μl
WBCs ([4]; LD-CuB 0.5 mg/kg): 4.23 ± 0.04 K/μl
tumor growth inhibition ([5]; HD-CuB 1.0 mg/kg alone): strong growth inhibition
tumor volume ([5]; LD-CuB 0.5 mg/kg, single agent): allowed the tumor volume to increase slightly from its original size
cell death after pulse-exposure [6]: longer exposure to CuB induced more cell death
